{"source": "ChEMBL document CHEMBL1201862", "about": "“PubChem BioAssay data set” (2004)", "experiment_in_all_cases": "NCI-60 cell line screen, 48 h", "key": {"SK-MEL-5": {"tested_on": "SK-MEL-5"}, "KM-20L2": {"tested_on": "KM-20L2"}, "DMS-114": {"tested_on": "DMS-114"}, "SNB-75": {"tested_on": "SNB-75"}, "786-0": {"tested_on": "786-0"}, "HT-29": {"tested_on": "HT-29"}, "SK-MEL-28": {"tested_on": "SK-MEL-28"}, "LXFL 529": {"tested_on": "LXFL 529"}, "RXF 393": {"tested_on": "RXF 393"}, "SR": {"tested_on": "SR"}, "KM12": {"tested_on": "KM12"}, "OVCAR-5": {"tested_on": "OVCAR-5"}, "SF-295": {"tested_on": "SF-295"}, "MOLT-4": {"tested_on": "MOLT-4"}, "NCI-H23": {"tested_on": "NCI-H23"}, "DMS-273": {"tested_on": "DMS-273"}, "UO-31": {"tested_on": "UO-31"}, "SW-620": {"tested_on": "SW-620"}, "U-251": {"tested_on": "U-251"}, "M19-MEL": {"tested_on": "M19-MEL"}, "NCI-H226": {"tested_on": "NCI-H226"}, "UACC-62": {"tested_on": "UACC-62"}, "DLD-1": {"tested_on": "DLD-1"}, "IGROV-1": {"tested_on": "IGROV-1"}, "SF-539": {"tested_on": "SF-539"}, "SF-268": {"tested_on": "SF-268"}, "XF498": {"tested_on": "XF498"}, "OVCAR-4": {"tested_on": "OVCAR-4"}, "EKVX": {"tested_on": "EKVX"}, "OVCAR-8": {"tested_on": "OVCAR-8"}, "NCI-H522": {"tested_on": "NCI-H522"}, "SK-MEL-2": {"tested_on": "SK-MEL-2"}, "CCRF-CEM": {"tested_on": "CCRF-CEM"}, "HOP-62": {"tested_on": "HOP-62"}, "M14": {"tested_on": "M14"}, "TK-10": {"tested_on": "TK-10"}, "SN12C": {"tested_on": "SN12C"}, "COLO 205": {"tested_on": "COLO 205"}, "ACHN": {"tested_on": "ACHN"}, "HCC 2998": {"tested_on": "HCC 2998"}, "SNB-78": {"tested_on": "SNB-78"}, "LOX IMVI": {"tested_on": "LOX IMVI"}, "HCT-15": {"tested_on": "HCT-15"}, "HCT-116": {"tested_on": "HCT-116"}, "K562": {"tested_on": "K562"}, "NCI-H460": {"tested_on": "NCI-H460"}, "A549": {"tested_on": "A549"}, "SNB-19": {"tested_on": "SNB-19"}}, "note": "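Five concentrations, 48 hours, 96-well plates. The concentration for 50% growth inhibition is given as GI50.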 Calls of active or inactive are those of the source. No stated cut-off is given here; in the data, active = GI50 up to about 1.1 µM and inactive = higher."}
{"smiles": "CCCC(=O)c1c(NOC2OC(COC(C)=O)C(OC(C)=O)C(OC(C)=O)C2OC(C)=O)nc(OC)n(C)c1=O", "note": "(stereo not drawn)", "values": [{"measurement": "GI50", "setting": "SK-MEL-5", "result": "> 100 µM (inactive)"}, {"measurement": "GI50", "setting": "KM-20L2", "result": "> 100 µM (inactive)"}, {"measurement": "GI50", "setting": "DMS-114", "result": "> 100 µM (inactive)"}, {"measurement": "GI50", "setting": "SNB-75", "result": "> 100 µM (inactive)"}, {"measurement": "GI50", "setting": "786-0", "result": "> 100 µM (inactive)"}, {"measurement": "GI50", "setting": "HT-29", "result": "> 100 µM (inactive)"}, {"measurement": "GI50", "setting": "SK-MEL-28", "result": "> 100 µM (inactive)"}, {"measurement": "GI50", "setting": "LXFL 529", "result": "> 100 µM (inactive)"}, {"measurement": "GI50", "setting": "RXF 393", "result": "> 100 µM (inactive)"}, {"measurement": "GI50", "setting": "SR", "result": "> 100 µM (inactive)"}, {"measurement": "GI50", "setting": "KM12", "result": "> 100 µM (inactive)"}, {"measurement": "GI50", "setting": "OVCAR-5", "result": "> 100 µM (inactive)"}, {"measurement": "GI50", "setting": "SF-295", "result": "> 100 µM (inactive)"}, {"measurement": "GI50", "setting": "MOLT-4", "result": "> 100 µM (inactive)"}, {"measurement": "GI50", "setting": "NCI-H23", "result": "> 100 µM (inactive)"}, {"measurement": "GI50", "setting": "DMS-273", "result": "> 100 µM (inactive)"}, {"measurement": "GI50", "setting": "UO-31", "result": "6.1 µM (inactive)"}, {"measurement": "GI50", "setting": "SW-620", "result": "> 100 µM (inactive)"}, {"measurement": "GI50", "setting": "U-251", "result": "> 100 µM (inactive)"}, {"measurement": "GI50", "setting": "M19-MEL", "result": "> 100 µM (inactive)"}, {"measurement": "GI50", "setting": "NCI-H226", "result": "> 100 µM (inactive)"}, {"measurement": "GI50", "setting": "UACC-62", "result": "> 100 µM (inactive)"}, {"measurement": "GI50", "setting": "DLD-1", "result": "> 100 µM (inactive)"}, {"measurement": "GI50", "setting": "IGROV-1", "result": "> 100 µM (inactive)"}, {"measurement": "GI50", "setting": "SF-539", "result": "> 100 µM (inactive)"}, {"measurement": "GI50", "setting": "SF-268", "result": "> 100 µM (inactive)"}, {"measurement": "GI50", "setting": "XF498", "result": "> 100 µM (inactive)"}, {"measurement": "GI50", "setting": "OVCAR-4", "result": "> 100 µM (inactive)"}, {"measurement": "GI50", "setting": "EKVX", "result": "> 100 µM (inactive)"}, {"measurement": "GI50", "setting": "OVCAR-8", "result": "> 100 µM (inactive)"}, {"measurement": "GI50", "setting": "NCI-H522", "result": "> 100 µM (inactive)"}, {"measurement": "GI50", "setting": "SK-MEL-2", "result": "> 100 µM (inactive)"}, {"measurement": "GI50", "setting": "CCRF-CEM", "result": "> 100 µM (inactive)"}, {"measurement": "GI50", "setting": "HOP-62", "result": "> 100 µM (inactive)"}, {"measurement": "GI50", "setting": "M14", "result": "> 100 µM (inactive)"}, {"measurement": "GI50", "setting": "TK-10", "result": "> 100 µM (inactive)"}, {"measurement": "GI50", "setting": "SN12C", "result": "> 100 µM (inactive)"}, {"measurement": "GI50", "setting": "COLO 205", "result": "> 100 µM (inactive)"}, {"measurement": "GI50", "setting": "ACHN", "result": "> 100 µM (inactive)"}, {"measurement": "GI50", "setting": "HCC 2998", "result": "> 100 µM (inactive)"}, {"measurement": "GI50", "setting": "SNB-78", "result": "> 100 µM (inactive)"}, {"measurement": "GI50", "setting": "LOX IMVI", "result": "> 100 µM (inactive)"}, {"measurement": "GI50", "setting": "HCT-15", "result": "> 100", "unit": "µM"}, {"measurement": "GI50", "setting": "HCT-116", "result": "> 100 µM (inactive)"}, {"measurement": "GI50", "setting": "K562", "result": "> 100 µM (inactive)"}, {"measurement": "GI50", "setting": "NCI-H460", "result": "> 100 µM (inactive)"}, {"measurement": "GI50", "setting": "A549", "result": "> 100 µM (inactive)"}, {"measurement": "GI50", "setting": "SNB-19", "result": "> 100 µM (inactive)"}]}
